We go through eleven compounds from patent US8088819B2, “Derivatives of substituted 3-phenyl-1-(phenylthienyl)propan-1-ones and of 3-phenyl-1-(phenylfuranyl) propan-1-ones, preparation and use” (priority 2006, dated 2012).

The target in data set [1] is T1, hPPARalpha (Homo sapiens, UniProt Q07869).
T1 construct: expressed in transfected cells; host or cells: COS-7 (monkey kidney fibroblasts)
T1 sequence (Q07869 239-466 limits assumed): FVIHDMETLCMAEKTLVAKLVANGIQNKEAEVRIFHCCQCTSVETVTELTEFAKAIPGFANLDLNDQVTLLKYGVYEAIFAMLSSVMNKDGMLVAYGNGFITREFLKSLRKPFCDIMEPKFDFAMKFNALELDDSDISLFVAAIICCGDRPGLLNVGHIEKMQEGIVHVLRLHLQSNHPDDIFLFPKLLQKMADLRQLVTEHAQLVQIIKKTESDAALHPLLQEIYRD
As to the kind of experiment: PPAR activation: Gal4-hPPARα chimera luciferase transactivation in COS-7 cells, Method 1. In kind it is cell-based. The settings on record: COS-7, 24 h; for Emax: maximum percentage response relative to the reference phenofibric acid, read-out: hPPARalpha % max. How it is done:
(§1) The activation of the PPARs was evaluated in vitro on a line of monkey kidney fibroblasts (COS-7) by measuring the transcriptional activity of chimeras constituted of the DNA binding domain of the Gal4 transcription factor of yeast and the ligand binding domain of the various PPARs. The compounds were tested at doses between 10^−5 and […] on the chimeras Gal4-PPARα, γ or δ, and the corresponding EC50 values were determined.
(§2) The COS-7 cells were obtained from the ATCC and were cultivated in DMEM medium supplemented with 10% (v/v) of fetal calf serum, 100 U/ml of penicillin (Gibco, Paisley, UK) and 2 mM of L-glutamine (Gibco, Paisley, UK). The cells were incubated at 37° C. in a humid atmosphere containing 5% CO2.
(§3) The plasmids Gal4(RE)_TkpGL3, pGal4-hPPARα, pGal4-hPPARγ, pGal4-hPPARδ and pGal4-φ are described in the literature (Raspe E et al., 1999). The constructs pGal4-hPPARα, pGal4-hPPARγ and pGal4-hPPARδ were obtained by cloning DNA fragments amplified by PCR corresponding to the DEF domains of the human nuclear receptors PPARα, PPARγ and PPARδ in the pGal4-φ vector.
(§4) The COS-7 cells in suspension were transfected with 150 ng of DNA per well, with a pGal4-PPAR/Gal4(RE)_TkpGL3 ratio of 1/10, in the presence of 10% fetal calf serum. The cells were seeded in 96-well plates (4×10^4 cells/well) and then incubated at 37° C. for 24 hours. Activation with the test compounds is carried out for 24 h at 37° C. in serum-free medium. At the end of the experiment, the cells were lysed and the luciferase activity was determined using the Steady-Lite™ HTS (Perkin Elmer) following the supplier's recommendations.

The target of data set [2] is T2, hPPARgamma (Homo sapiens, UniProt P37231).
T2 construct: expressed in transfected cells; host or cells: COS-7 (monkey kidney fibroblasts)
T2 sequence (P37231 238-503 limits assumed): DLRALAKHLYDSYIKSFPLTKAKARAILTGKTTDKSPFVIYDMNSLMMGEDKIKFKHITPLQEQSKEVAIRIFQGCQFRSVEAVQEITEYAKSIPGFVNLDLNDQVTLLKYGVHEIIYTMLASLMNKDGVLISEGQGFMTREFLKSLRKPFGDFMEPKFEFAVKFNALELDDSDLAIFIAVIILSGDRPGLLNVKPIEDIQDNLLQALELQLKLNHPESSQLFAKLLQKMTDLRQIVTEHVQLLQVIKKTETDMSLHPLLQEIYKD
As to the kind of experiment: PPAR activation: Gal4-hPPARγ chimera luciferase transactivation in COS-7 cells, Method 1. In kind it is cell-based. The settings on record: COS-7, 24 h; for Emax: maximum percentage response relative to the reference rosiglitazone, read-out: hPPARgamma % max. How it is done:
as §1, §2, §3, §4

In data set [3] the target is T3, hPPARdelta (Homo sapiens, UniProt Q03181).
T3 construct: expressed in transfected cells; host or cells: COS-7 (monkey kidney fibroblasts)
T3 sequence (Q03181 211-439 limits assumed): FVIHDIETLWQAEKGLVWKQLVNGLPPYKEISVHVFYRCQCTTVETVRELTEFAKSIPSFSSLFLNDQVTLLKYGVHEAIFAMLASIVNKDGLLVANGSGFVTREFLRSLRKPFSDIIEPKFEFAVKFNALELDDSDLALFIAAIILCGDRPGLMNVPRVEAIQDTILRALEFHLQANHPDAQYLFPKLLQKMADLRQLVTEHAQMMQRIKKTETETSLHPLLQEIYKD
The data set is described as follows: PPAR activation: Gal4-hPPARδ chimera luciferase transactivation in COS-7 cells, Method 1. In kind it is cell-based. The settings on record: COS-7, 24 h; for Emax: maximum percentage response relative to the reference GW501516, read-out: hPPARdelta % max. How it is done: as §1, §2, §3, §4

Data set [4] deals with T1, hPPARalpha. The data set is described as follows: PPAR activation: Gal4-hPPARα chimera luciferase transactivation in COS-7 cells, Method 2. In kind it is cell-based. The conditions noted are these: COS-7, 24 h; for EC50: 1% Ultroser; for Emax: maximum percentage response relative to the reference phenofibric acid, read-out: hPPARalpha % max. How it is done:
as §1
(§5) The principle, the cells and the plasmids used for example 5 were also employed in this example. Only the application of the transfection stage is slightly different. The details are presented below.
(§6) The adherent COS-7 cells are transfected with 40 μg of DNA per 225 cm^2 dish, with a pGal4-PPAR/Gal4(RE)_TkpGL3 ratio of 1/10, in the presence of 10% fetal calf serum. The cells are then detached and seeded in the absence of serum in 384-well plates (2×10^4 cells/well) and incubated for 4 hours at 37° C. The compounds are then diluted in a 96-well plate and transferred to the 384-well plate. Activation with the test compounds is carried out for an additional 24 h at 37° C. in the presence of 1% of Ultroser™ lipid-free synthetic serum (Biosepra). These last 2 stages are automated using a Genesis Freedom 200™ station (Tecan). At the end of the experiment, the cells are lysed and the luciferase activity is determined using the Steady-Lite™ HTS (Perkin Elmer) following the supplier's recommendations.

The target of data set [5] is T2, hPPARgamma. The data set is described as follows: PPAR activation: Gal4-hPPARγ chimera luciferase transactivation in COS-7 cells, Method 2. The settings on record: COS-7, 24 h, Method 2; for Emax: maximum percentage response relative to the reference rosiglitazone, read-out: hPPARgamma % max; for EC50: 1% Ultroser, read-out: hPPARgamma EC50. In kind it is cell-based. The method, then: The activation of the PPARs was evaluated in vitro on a line of monkey kidney fibroblasts (COS-7) by measuring the transcriptional activity of chimeras constituted of the DNA binding domain of the Gal4 transcription factor of yeast and the ligand binding domain of the various PPARs.
Only the application of the transfection stage is slightly different. The details are presented below.
as §6

The target of data set [6] is T3, hPPARdelta. As to the kind of experiment: PPAR activation: Gal4-hPPARδ chimera luciferase transactivation in COS-7 cells, Method 2. In kind it is cell-based. The settings on record: COS-7, 24 h; for EC50: 1% Ultroser; for Emax: maximum percentage response relative to the reference GW501516, read-out: hPPARdelta % max. How it is done: as §1, §5, §6

Take `CC(C)(Oc1ccc(CCC(=NO)c2ccc(-c3ccc(C(F)(F)F)cc3)s2)c(Cl)c1Cl)C(=O)O` (mixture of isomers) [Compound 49, 2-(2,3-dichloro-4-(3-(hydroxyimino)-3-(5-(4-(trifluoromethyl)-phenyl)thien-2-yl)propyl)phenoxy)-2-methylpropanoic acid]: the melting point lay within 135 to 136 °C. On hPPARalpha [1], the EC50 was determined as 0.043 µM and the Emax was 46%. Moreover, on hPPARgamma [2], a half-maximal effect (EC50) was put at 0.66 µM and the Emax is 24%. In addition, at hPPARdelta [3], the EC50 came to 0.045 µM and the Emax was found to be 93%.

For the compound `CC(C)(Oc1ccc(CCC(OCc2ccc(I)cc2)c2ccc(-c3ccc(C(F)(F)F)cc3)s2)c(Cl)c1Cl)C(=O)O` (stereo not drawn) [Compound 6, 2-(4-(3-(4-iodobenzyloxy)-3-(5-(4-(trifluoromethyl)phenyl)thien-2-yl)propyl)-2,3-dichlorophenoxy)-2-methylpropanoic acid], the EC50 at hPPARalpha [4] was determined as 7.86 µM; on hPPARgamma [5], 4.11 µM; on hPPARdelta [6] it was 0.53 µM. The Emax on hPPARalpha [4] was found to be 41%; on hPPARgamma [5] it was 55%; on hPPARdelta [6], 92%.

Compound `CCC(Oc1ccc(CCC(=O)c2ccc(-c3ccc(C(F)(F)F)cc3)s2)c(Cl)c1Cl)C(=O)O` (stereo not drawn) [Compound 9, 2-(2,3-dichloro-4-(3-oxo-3-(5-(4-(trifluoromethyl)phenyl)thien-2-yl)propyl)phenoxy)butanoic acid] displayed a melting point of 169 to 171 °C. At hPPARalpha [1], a half-maximal response (EC50) required 0.006 µM and the Emax amounted to 54%. Further, on hPPARgamma [2], a half-maximal response (EC50) required 0.28 µM and the Emax turned out to be 41%. Also, at hPPARdelta [3], the concentration giving a half-maximal response (EC50) turned out to be 0.019 µM and the Emax came out at 84%.

Turning to `CC(C)(CCCOc1ccc(CCC(=O)c2ccc(-c3ccc(C(F)(F)F)cc3)s2)c(Cl)c1Cl)C(=O)O` [Compound 13, 5-(2,3-dichloro-4-(3-oxo-3-(5-(4-(trifluoromethyl)phenyl)thien-2-yl)propyl)phenoxy)-2,2-dimethylpentanoic acid], the melting point lay within 167 to 169 °C. Also, at hPPARalpha [1], the concentration giving a half-maximal response (EC50) was determined as 0.977 µM and the Emax came out at 20%. In addition, at hPPARgamma [2], the half-maximal effective concentration (EC50) amounted to 0.49 µM and the Emax came to 58%. Also, at hPPARdelta [3], the Emax was 1%.

Compound `O=C(O)COc1ccc(CCC(=O)c2ccc(-c3ccc(C(F)(F)F)cc3)s2)c(Cl)c1Cl` [Compound 15, 2-(2,3-dichloro-4-(3-oxo-3-(5-(4-(trifluoromethyl)phenyl)thien-2-yl)propyl)phenoxy)acetic acid] showed a melting point of 217 to 219 °C. Moreover, on hPPARalpha [1], the midpoint of the response, the EC50, lay at 0.163 µM and the Emax stood at 46%. Further, at hPPARgamma [2], the EC50 was found to be 5.66 µM and the Emax was 32%. In addition, on hPPARdelta [3], a half-maximal effect (EC50) was put at 0.253 µM and the Emax was determined as 88%.

Compound `O=C(CCc1ccc(OC(C(=O)O)c2ccccc2)c(Cl)c1Cl)c1ccc(-c2ccc(C(F)(F)F)cc2)s1` (stereo not drawn) [Compound 17, 2-(2,3-dichloro-4-(3-oxo-3-(5-(4-(trifluoromethyl)phenyl)thien-2-yl)propyl)phenoxy)-2-phenylacetic acid] yielded a melting point of 189 to 191 °C. On hPPARalpha [1], the concentration for a half-maximal effect (EC50) turned out to be 0.228 µM and the Emax was 5%. At hPPARgamma [2], the response was half-maximal at 0.19 µM (EC50) and the Emax stood at 27%. The Emax on hPPARdelta [3] amounted to 0%.

For `O=C(O)COc1ccc(CCC(OCc2ccccc2)c2ccc(-c3ccc(C(F)(F)F)cc3)s2)cc1F` (stereo not drawn) [Compound 27, 2-(4-(3-(benzyloxy)-3-(5-(4-(trifluoromethyl)phenyl)thien-2-yl)-propyl)-2-fluorophenoxy)acetic acid], the EC50 came out at 1.31 µM on hPPARalpha [1], 2.82 µM on hPPARgamma [2] and 0.589 µM at hPPARdelta [3]. Further, the values for the Emax at hPPARalpha [1], on hPPARgamma [2] and on hPPARdelta [3] were 47%, 30% and 77%, respectively.

Turning to `CCC(Oc1ccc(CCC(O)c2ccc(-c3ccc(C(F)(F)F)cc3)s2)cc1F)C(=O)O` (stereo not drawn) [Compound 30, 2-(2-fluoro-4-(3-hydroxy-3-(5-(4-(trifluoromethyl)phenyl)thien-2-yl)propyl)phenoxy)butanoic acid], the EC50 on hPPARalpha [4] was found to be 0.05 µM; at hPPARgamma [5], 3.93 µM; on hPPARdelta [6], 1.53 µM. Besides, the results for the Emax on hPPARalpha [4], on hPPARgamma [5] and on hPPARdelta [6] were 51%, 45% and 80%, respectively.

As for `CCOC(CCc1ccc(OC(C)(C)C(=O)O)c(Cl)c1Cl)c1ccc(-c2ccc(C(F)(F)F)cc2)s1` (stereo not drawn) [Compound 41, 2-(2,3-dichloro-4-(3-ethoxy-3-(5-(4-(trifluoromethyl)phenyl)thien-2-yl)propyl)phenoxy)-2-methylpropanoic acid], the 50% effective concentration (EC50) was 0.61 µM at hPPARalpha [4], 1.49 µM at hPPARgamma [5] and 0.01 µM at hPPARdelta [6]. Moreover, the Emax at hPPARalpha [4] was 49%; at hPPARgamma [5], 36%; at hPPARdelta [6] it was 76%.

In the case of `CC(C)(Oc1ccc(CCC(OCC2CCCCC2)c2ccc(-c3ccc(C(F)(F)F)cc3)s2)c(Cl)c1Cl)C(=O)O` (stereo not drawn) [Compound 42, 2-(2,3-dichloro-4-(3-(cyclohexylmethoxy)-3-(5-(4-(trifluoromethyl)phenyl)thien-2-yl)propyl)phenoxy)-2-methylpropanoic acid], the half-maximal effective concentration (EC50) on hPPARalpha [4] was 2 µM; on hPPARgamma [5], 0.89 µM; at hPPARdelta [6], 0.26 µM. In addition, the Emax at hPPARalpha [4] stood at 28%; at hPPARgamma [5], 47%; at hPPARdelta [6] it was 82.1%.

In the case of `CCC(Oc1ccc(CCC(OCc2ccccc2)c2ccc(-c3ccc(C(F)(F)F)cc3)s2)cc1F)C(=O)O` (stereo not drawn) [Compound 70, 2-(4-(3-(benzyloxy)-3-(5-(4-(trifluoromethyl)phenyl)thien-2-yl)propyl)-2-fluorophenoxy)butanoic acid], the EC50 at hPPARalpha [1] was determined as 0.227 µM; at hPPARgamma [2], 0.97 µM; on hPPARdelta [3], 0.216 µM. For the same compound, the Emax at hPPARalpha [1] is 47%; at hPPARgamma [2], 56%; at hPPARdelta [3], 67%.
